Measured values as given in patent US20240415920A1, “PEPTIDE HAVING ACTIVITY OF PREVENTING HAIR LOSS OR PROMOTING HAIR GROWTH, AND USE THEREOF” (CAREGEN CO., LTD., priority 2021, published 2024).

System: LEF-1
Experiment: RT-PCR of LEF-1 expression in HHFDPC
Assay type: cell-based, human
Conditions: peptide 10 nM, 100 nM, 1 μM, 24 hours, FIG. 4
Description: Furthermore, in order to determine whether the β-catenin moves to the nucleus and is s activated to affect cell proliferation and differentiation, whether the expression of LEF-1 and cyclin D1 (cyclin D1), which act as downstream factors, increases with β-catenin activation was confirmed through RT-PCR. Specifically, in the same manner as the previous Western blotting experiment, HHFDPC cells were cultured, treated with the peptides of the Preparation Example of the present invention at concentrations of 10 nM, 100 nM, and 1 μM, respectively, and cultured at 37° C. for 24 hours. After washing the cells with PBS, RNA was isolated by treating them with 300 […] of easy blue (intron, Korea). Then, cDNA was synthesized using a cDNA synthesis kit (enzynomics, Korea) by quantifying it with nano drop, and PCR was performed using primers for LEF-1 and cyclin D1 (base sequences of the primers are listed in Table 2) and PCR premix (enzynomics, Korea). Electrophoresis was performed on a 1.5% agarose gel, and then the mRNA of LEF-1 and cyclin D1 was detected using a band analysis system (Bio-Rad gel image system).

## GCGLFVAAC [peptide of the present invention]
  LEF-1 mRNA amount compared to the control group without any treatment: the amount of mRNA increased further
